Ten compounds from patent EP1021178B1, “SELENOPHENE ANTI-TUMOR AGENTS” (Purdue Research Foundation, priority 1996, dated 1997) can be followed below.

One assay has as its system MDA-MB-231/ATCC. Description: NCI human tumor cell panel. Conditions: MDA-MB-231, read-out: Log10 LC50, Breast Cancer (converted), MDA-MB-231/ATCC. Format: cell-based.
Consider `O=Cc1ccc(-c2ccc(-c3ccc(C=O)[se]3)s2)s1`, for which the CC50 was over 100 µM.

Regarding `OCc1ccc(-c2ccc(-c3ccc(CO)[se]3)s2)s1`, the CC50 is 97.7 µM.

In the case of `OCc1ccc(-c2ccc(-c3ccc[se]3)s2)[se]1`, the CC50 is over 100 µM.

Regarding `OCc1ccc(-c2ccc(-c3ccc[se]3)[se]2)[se]1`, the CC50 is over 100 µM.

Turning to `OCc1ccc(-c2ccc(-c3ccc(CO)s3)[se]2)s1`, the CC50 was over 100 µM.

`OCc1ccc(-c2ccc(-c3ccc(CO)[se]3)s2)[se]1`: the CC50 was over 100 µM.

The assay is the same for the next values; noted with them: MDA-MB-231, read-out: Log10 LC50, MDA-MB-231/ATCC (converted).
Turning to `OCc1ccc(-c2ccc(-c3cccs3)[se]2)s1`, the CC50 is over 100 µM.

Regarding `O=Cc1ccc(-c2ccc(-c3ccc(C=O)[se]3)s2)[se]1`, the CC50 is over 100 µM.

As for `O=Cc1ccc(-c2ccc(-c3ccc(C=O)[se]3)[se]2)[se]1`, the CC50 was over 100 µM.

For `O=Cc1ccc(-c2ccc(-c3ccc(C=O)s3)[se]2)s1`, the CC50 was over 100 µM.
